Laboratory results reported in article PMC7824769, “Identification of Small Molecules Blocking the Pseudomonas aeruginosa Type III Secretion System Protein PcrV” (Biomolecules, 2021).
Values joined by “and” are separate entries in the source; they are usually repeats but may differ in a detail not shown here. Equal values may be shown once.

Molecular target: PcrV (Pseudomonas aeruginosa, UniProt G3XD49)
Assay: SPR dose-response binding to immobilized PcrV (equilibrium analysis)
Description: The SPR screening was performed using the ProteOn^TM XPR36 Protein Interaction Array System (Bio-Rad Laboratories Inc., Hercules, CA, USA) with ProteOn GLH sensor chip (Bio-Rad Laboratories Inc., Hercules, CA, USA), and the results were analyzed with the ProteOn Manager software^TM (Bio-Rad Laboratories Inc., Hercules, CA, USA), Excel 2016 (Microsoft Office), and GraphPad Prism 7.04. All SPR experiments were performed at 25 °C. The multichannel module of the ProteOn system was in the vertical position during protein immobilization. The proteins were attached to the surface of a GLH sensor chip via amine coupling chemistry. A buffer scouting was performed to elucidate the optimal binding conditions of PcrV to the GLH sensor chip. First, channels 1–4 on the chip surface were activated using a 1:1 mixture of 40 mM 1-ethyl-3-(3-dimethylaminopropyl)carbodiimide hydrochloride (EDAC) (Bio-Rad Laboratories Inc., Hercules, CA, USA) and 10 mM N-hydroxysulfosuccinimide (sulfo-NHS, Bio-Rad Laboratories Inc., Hercules, CA, USA) for 300 s at 30 µL/min. Next, the proteins PcrV (33,398.6 Da, 6.37 mg/mL) was diluted in 10 mM NaOAc (pH 4, 4.5, and 5) to 0.05 mg/mL. PcrV was immobilized in channel 1–3 for 540 s at 30 µL/min. Channel 4 was flushed with 10 mM NaOAc (pH 5) for 540 s at 30 µL/min. As deactivating agent, a 1:1 mixture of 1 M ethanolamine and milli-Q filtered water was used. The deactivating solution was injected over all four channels for 300 s at 30 µL/min. Phosphate buffered saline with Tween (PBST; 10 mM phosphate buffer pH 7.4, 140 mM NaCl, 2.7 mM KCl, and 0.05% Tween 20) was used as the running buffer. The final amount of immobilized protein was measured in resonance units (RU) relative to the signal of the baseline prior activation. […] Immobilization of PcrV diluted in sodium acetate of pH 4.5 in one channel and of pH 5 in one channel were used in the beginning of the screening procedure (for plate 1–26). Since no difference was found between the two pH values, the PcrV protein was diluted in sodium acetate at pH 5 only (in two channels) from plate 27 and the rest of the screen. The immobilization procedure for the screening was performed as described above with the addition that the control protein carbonic anhydrase isoenzyme II from bovine erythrocytes (CAII, Sigma-Aldrich, article number 2522) was immobilized in one channel that was activated and deactivated as described above. CAII (1 mg/mL in PBS) was deactivated when diluted in 10 mM sodium acetate (pH 4) to 0.05 mg/mL. Immobilization level of the deactivated CAII was 18,000 RU. Deactivated CAII was used as a control protein according to the recommendations by the ProteOn manufacturer (Bio-Rad Laboratories Inc., Hercules, CA, USA). As running buffer, we employed PBS (pH 7.4, 0.05% Tween 20).
First, the PcrV protein was immobilized in two channels as described above while keeping a blank channel which was activated and deactivated as described above. The multichannel module of the ProteOn system was in horizontal position during the small molecule interaction studies. They were serially diluted to (400,) 200, 100, 50, 25, 12.5, 6.25, and (3.125); or 100, 50, 25, and 12.5 µM; or 100, 66.7, 44.4, 29.6, 19.7, and 13.2 µM in PBST (0.05% Tween 20) with a total concentration of 5% DMSO in 96-well plates. The running buffer was PBST (0.05% Tween 20) containing 5% DMSO. The analytes were injected at a flowrate of 100 µL/min, contact time was 60 s, and dissociation time was 60–120 s. Solvent correction was performed continuously during the experiments to account for bulk response of DMSO. The data was then baseline-aligned, processed by channel referencing with the blank channel, and solvent-corrected. The equilibrium dissociation constant (KD) values were determined from equilibrium analysis in the ProteOn Manager software^TM. Solubility problems frequently hampered KD determination since the small molecules could not always be dissolved in concentrations high enough to reach a plateau. […]

[1] = KD ± standard error of KD (Table S1), single experiment, standard error from ProteOn Manager software
[2] = SPR KD, equilibrium analysis, mean ± SD of three or more independent experiments, individual values where n < 3, 25 °C, PBST 5% DMSO

PcrV, sequence (G3XD49 entry or part of it): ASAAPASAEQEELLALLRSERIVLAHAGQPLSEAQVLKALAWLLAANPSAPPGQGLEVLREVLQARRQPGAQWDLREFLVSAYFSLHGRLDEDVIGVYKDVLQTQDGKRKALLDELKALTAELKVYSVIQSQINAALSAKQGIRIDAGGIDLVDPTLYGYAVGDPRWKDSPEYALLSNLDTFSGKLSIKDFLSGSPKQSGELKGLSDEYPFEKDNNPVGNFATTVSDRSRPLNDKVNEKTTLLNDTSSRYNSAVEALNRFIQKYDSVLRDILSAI

SMILES	Kd [1]	Kd [2]	Rmax (Table S1) (single experiment)	Kd (KD (equilibrium analysis, Figure 3B), one representative experiment, binding levels at 45-55 s)	Rmax (equilibrium analysis, Figure 3B) (one representative experiment)
Cc1c(Br)ccc(OC[C@@H]2C[C@@H]2C(=O)O)c1C (relative stereo) [Compound 33]	59.5 ± 11.1 µM	~60 µM and 61 to 63 µM and 63 µM	76.8		
Cc1c(Br)ccc(OC[C@@H]2C[C@H]2C(=O)O)c1C (relative stereo) [Compound 32]	61.1 ± 16.9 µM	~60 µM and 61 to 63 µM and 61 µM	81.8		
Cc1c(Br)ccc(OCCCC(=O)O)c1C [Compound H1]		< 150 µM and 106 µM		98.3 µM	71.3 RU
